# Measurements as given in US7887794B2, “Lactic acid bacteria and their use in the treatment of cancer” (Bio-K Plus International, Inc., priority 2001, dated 2011).
# Columns and labels:
# [1] = system: colon cancer cells; assay: addition of butyrate, apoptosis of colon cancer cells in vitro; format: cell-based, human
# Protocol: The plate of cancer cells containing 3×10^5 cells per well is incubated overnight to allow the cells to adhere. Then, the different concentrations of butyric acid (Sigma, St-Louis, USA) are added to the wells containing the adherent cells and the culture medium, the complete RPMI. After this addition, a 48 hour incubation is done in order to measure the percentage of apoptosis according to the technique described hereinafter.
# A dose of 5FU (100 μg/mL) as well as different doses (2 mM and 4 mM) of butyric acid (ba) are added to the cancerous colon cells. Apoptosis is measures after a 48 hour incubation.
# [2] = system: human colon cancer; conditions: mice; cited from earlier work
# [3] = system: LS 513 cells; assay: apoptosis / cell cycle by flow cytometry with propidium iodide; format: cell-based, human; conditions: in the presence of intact (live or irradiated) bacteria; dose dependent
# Protocol: A concentration of 5×10^4 cells per mL, with 6 mL per well, is used in order to obtain 3×10^5 cells per sample. The cells are prepared as indicated above. The different products are added to the wells, and an incubation of 48 hours is done. Following the incubation, the supernatants of the cells are collected in different 15 mL tubes and centrifuged at 1500 RPM during 5 minutes. The cellular pellets are then collected by decantation of the supernatant and put on ice. This stage consists in recuperating the cells in suspension. Afterwards, the adherent cellular sheet is washed with 0.5 mL trypsin-EDTA, then 0.2 mL trypsin-EDTA is added to each well to allow the cells to detach when they are incubated for around 8 minutes in the incubator at 37° C. The cells are suspended in 3 mL of complete RPMI 10% FCS to stop the enzymatic activity of trypsin. […] Different peaks are formed due to the differences in fluorescence existing between each phase of the cellular cycle. The more the content of intact DNA is high, the more the fluorescence is high and vice-versa. The program measures the percentage of fluorescence that the large spike forms under the corresponding spike of G0-G1, this spike represents pieces of fragmented DNA, consequence of the cleavage of DNA by different enzymes activated during apoptosis.
Structure (SMILES),apoptosis in colon cancer cells in vitro [1],in vivo growth of human colon cancer [2],efficacy of the anticancer agent [3]
CCCC(=O)O [butyric acid],causes apoptosis,inhibits the in vivo growth,
"O=c1[nH]cc(F)c(=O)[nH]1 [5FU, 5-fluorouracil]",,,considerably increased
